Measured values taken from ChEMBL document CHEMBL5143596, “The Design and Optimization of Monomeric Multitarget Peptides for the Treatment of Multifactorial Diseases” (J Med Chem, 2022).

Tests used:
[1] = target: Mu-type opioid receptor (Homo sapiens, UniProt P35372); assay: Binding affinity at MOR (unknown origin) assessed as inhibition constant
[2] = Metabolic stability in rat plasma assessed as half life; type: ADME, cell-free

Sequence of Mu-type opioid receptor (P35372 whole entry): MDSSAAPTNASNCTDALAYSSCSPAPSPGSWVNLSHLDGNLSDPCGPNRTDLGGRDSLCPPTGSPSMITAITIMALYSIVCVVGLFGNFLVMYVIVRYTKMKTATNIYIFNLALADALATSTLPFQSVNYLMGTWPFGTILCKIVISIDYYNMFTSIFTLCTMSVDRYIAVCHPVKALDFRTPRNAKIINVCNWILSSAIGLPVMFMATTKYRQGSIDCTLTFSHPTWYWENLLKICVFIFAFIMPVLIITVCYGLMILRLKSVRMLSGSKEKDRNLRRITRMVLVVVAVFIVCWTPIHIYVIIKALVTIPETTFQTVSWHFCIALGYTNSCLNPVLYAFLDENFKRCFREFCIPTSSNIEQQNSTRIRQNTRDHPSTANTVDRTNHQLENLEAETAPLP

Cc1cc(O)cc(C)c1C[C@H](N)C(=O)N[C@H](C)C(=O)NCC(=O)N(C)[C@@H](Cc1ccccc1)C(=O)N1CCC[C@H]1C(=O)N[C@@H](CC(C)C)C(=O)N[C@@H](Cc1c[nH]c2ccccc12)C(=O)NCc1cc(C(F)(F)F)cc(C(F)(F)F)c1
Ki [1]: 1 nM | half-life [2]: > 1440 min
